# Experimental data as given in US11707472B2, “Compositions for the treatment of fibrosis” (Viking Therapeutics, Inc., priority 2017, dated 2023).
# What was measured:
# Format in all cases: in vivo
# DIO-NASH mice = assay: DIO-NASH mice, 8 weeks oral treatment, liver fibrosis readouts (Example 1); settings: oral once per day; for liver Picro-Sirius Red (PSR) staining (total liver collagen 1 and 3 by morphometry): Compound 1 10 mg/kg; for proportion of animals with a reduction in fibrosis score post-treatment: vs mock treated animals
# Method: DIO-NASH mice were acclimatized for 3 weeks, with pre-treatment liver biopsy samples collected prior to acclimatization. Mice were randomly assigned to one of five dosing groups, with 12 mice per group. Assigned dosages were: Compound 2 (low): 3 mg/kg; Compound 2 (high): 10 mg/kg; Compound 1: 10 mg/kg; and Elafibranor (30 mg·kg). One group was mock treated with vehicle only as a control. Dosage forms were administered orally once per day. After 8 weeks, animals were sacrificed and liver samples were taken. Liver samples were assayed for total liver hydroxyproline, and subjected to immunohistochemical observation for fibrosis stage as well as the extent of Cola1 (Collagen Type Ia) staining. […] Since hydroxyproline is a significant component of collagen, and collagen is the most significant source of hydroxyproline in animal tissues, levels of hydroxyproline provide a reliable proxy for the presence of collagen in a sample.
# Terminal liver biopsy samples were also subjected to histochemical staining and immunohistochemical staining. Representative images of liver stained with Picro-Sirius Red (to visualize collagen I and III deposition, red stain) at the end of the treatment period following 8 weeks of treatment with vehicle, low dose Compound 2, high dose Compound 2, Compound 1, or elafibranor are shown in FIG. 2. […] Representative images of liver stained with anti-type I collagen (col1a1) (Southern Biotech, Cat. 131001) at the end of the treatment period following 8 weeks of treatment with vehicle, low dose Compound 2, high dose Compound 2, Compound 1, or elafibranor are shown in FIG. 3. The extent of ColA1 content was calculated as the total liver ColA1 staining in terminal liver biopsy samples.
# Fibrosis scores were also calculated based on observation of terminal liver biopsy samples.
# [1] = system: diet-induced NASH mouse model; assay: diet-induced NASH mouse model, 8-week dosing (Example 6); design: reduction in fibrosis (fibrosis score) / reduction in type 1 collagen deposition / reduction in hydroxyproline / reduction of expression of pro-fibrotic gene Colla1 / reduction of expression of pro-fibrotic gene Col3a1 / reduction of expression of pro-fibrotic gene αSMA / reduction of expression of pro-fibrotic gene Galectin 1: concentration or dose not given beside the values; settings: diet-induced NASH mice, oral dosing 8 weeks
# Method: Compound 2 was evaluated in a diet-induced NASH mouse model (See, e.g., Hansen, H. et al., Drug Discovery Today 22(17):1701-1718 (2017) which is hereby incorporated by reference with respect to its disclosure of diet-induced, genetic, chemical, and other NASH mouse models). […] Animals were biopsied pre-study, and only animals with NASH and fibrosis were selected for study. Selected animals were acclimatized and randomized, with experimental groups of 11-12 animals per cohort receiving oral dosing of compound 2 according to the following schedules: Daily dosing for 8 weeks; or daily dosing for week 0-1 followed by weekly dosing for weeks 2-8. At week 8, animals were sacrificed and tissues analyzed. Plasma enzymes (P-ALT (alanine aminotransferase) and P-AST (aspartate aminotransferase)), total plasma triglycerides, and total plasma cholesterol were measured, and terminal necropsy of each liver was carried out, assaying total liver biochemistry including total liver triglycerides, and total liver cholesterol, as well as histological evaluation of NAFLD activity score (done pre- and post-treatment), fibrosis stage (also done pre- and post-treatment), steatosis, Colla1 level, and galactin-3 level. Tissue samples were preserved for characterization using RNAseq; RNAseq was used to determine expression levels for genes showing differential expression in compound 2-treated vs. vehicle treated animals and/or genes known to be implicated in fibrosis.
# [2] = system: male Dunkin-Hartley guinea pigs; assay: bleomycin-induced pulmonary fibrosis (Example 2); settings: guinea pig lung biopsies, 6-10 weeks treatment; relative to levels prior to administration
# Method: Pulmonary fibrosis is induced in healthy male Dunkin-Hartley guinea pigs by administering bleomycin intratracheally. Control subjects are developed by intratracheal administration of saline solution. After the establishment of pulmonary fibrosis in the bleomycin treated animals, test articles comprising any one of Compounds 1-4, or any other compound disclosed herein, are administered to each subject as appropriate for its formulation, daily or as appropriate, for 6-10 weeks. Unilateral lung biopsies are taken prior to the first administration of the test articles and again after sacrifice following the last administration of the test articles. Biopsy samples are analyzed as described in Example I, with the addition of immunohistochemical staining for type III collagen. […] Mock treated animals show little or no reduction in fibrosis, hydroxyproline content, or Collagen III content.
# nude mice = assay: palmar fascia fibrosis induced by Dupuytren's disease fibroblasts (second Example 2); settings: nude mice forepaw biopsies, 6-10 weeks treatment; relative to levels prior to administration
# Description: Palmar fascia fibrosis is induced in nude mice by introducing fibroblasts from fibrotic cords of Dupuytren's disease patients as described in Stish, L. et al., BMC Musculoskelet. Disord. 16: 138-148 (2015) which is hereby incorporated by reference with respect to its description of the establishment of an animal model system for the study of palmar fascia fibrosis. After the establishment of palmar fascia fibrosis in the fibroblast treated animals, test articles comprising any one of Compounds 1-4, or any other compound disclosed herein, are administered to each subject as appropriate for its formulation, daily or as appropriate, for 6-10 weeks. Unilateral forepaw biopsies are taken prior to the first administration of the test articles and again after sacrifice following the last administration of the test articles. Biopsy samples are analyzed as described in Example 1, with the addition of immunohistochemical staining for type I collagen. […] Mock treated animals show little or no reduction in fibrosis, hydroxyproline content, or Collagen III content.
# [3] = system: Sprague-Dawley Rats or C57BL mice; assay: hypertrophic skin lesions induced by capsaicin, CCl4 and/or bleomycin (Example 3); settings: rat or mouse skin biopsies, 6-10 weeks treatment; relative to levels prior to administration
# Description: Hypertrophic skin lesions are induced in Sprague-Dawley Rats by subcutaneous injection of capsaicin as described in Wallengren, J. et al., Skin Pharm. Appl. Skin Physiol. 15(3):154-165 (2002), which is hereby incorporated by reference with respect to its description of the induction of hypertrophic skin lesions in rats; or in C57BL or other appropriate strain mice by subcutaneous administration of CCl4 and/or bleomycin, as described in Alonso-Merino et al., Proc. Nat. Acad. Sci. 113(24):E3451-60 (2016), which is incorporated herein for its disclosure of the induction of fibrotic skin lesions in mice. After the establishment of hypertrophic skin lesions in the capsaicin, CCl4 and/or bleomycin treated animals, test articles comprising any one of Compounds 1-4, or any other compound disclosed herein, are administered to each subject animal as appropriate for its formulation, daily or as appropriate, for 6-10 weeks. Skin biopsies from the injection site are taken prior to the first administration of the test articles and again after sacrifice following the last administration of the test articles. Biopsy samples are analyzed as described in Example I, with the addition of immunohistochemical staining for type III collagen. […] Mock treated animals show little or no reduction in fibrosis, hydroxyproline content, or Collagen III content.
# [4] = system: Glucose-6-phosphatase-α deficient mice (Agl−/−); assay: GSD-3-like hepatic symptoms in Agl-/- mice (Example 4); settings: Agl−/− mice liver biopsies, 6-10 weeks treatment; relative to levels prior to administration
# Method: (§1) Glucose-6-phosphatase-α deficient mice that manifest GSD-3-like hepatic symptoms, including hypercholesterolemia and hyperlipidemia (Agl−/−, see e.g. Liu, K. M. et al., Mol. Genet. Metabol. 111(4):467-76 (2014)) are treated with test articles comprising any one of Compounds 1-4, or any other compound disclosed herein, administered to each subject as appropriate for its formulation, daily or as appropriate, for 6-10 weeks. Liver biopsies are taken prior to the first administration of the test articles and again after sacrifice following the last administration of the test articles. […] Mock treated animals show little or no reduction in fibrosis, hydroxyproline content, or Collagen I content.
# [5] = system: Phosphorylase kinase deficient mice (PhKc−/−); assay: GSD-8/9-like hepatic symptoms in PhKc-/- mice (Example 5); settings: PhKc−/− mice liver biopsies, 6-10 weeks treatment; relative to levels prior to administration
# Method: as §1, with “Phosphorylase kinase” for “Glucose-6-phosphatase-α”, “GSD-8/9-like” for “GSD-3-like”, “(PhKc−/−, see, e.g., Varsanyi,” for “(Agl−/−, see e.g. Liu, K.”, “Biochem.” for “Mol.”, “18(3-4):247-61 (1980)),” for “Metabol. 111(4):467-76 (2014))”
# [6] = Compound 2 3 and 10 mg/kg, vs elafibranor (control) and vehicle (mock)
# [7] = liver RNAseq, FIG. 8, vs vehicle-treated controls
# [8] = liver, FIG. 7, relative to pre-treatment samples
smiles,measurement,setting,value
Cc1cc(OCP(=O)(OCOC(=O)C(C)(C)C)OCOC(=O)C(C)(C)C)cc(C)c1Cc1ccc(O)c(Cc2ccccc2)c1 [Compound 1],liver Picro-Sirius Red (PSR) staining (total liver collagen 1 and 3 by morphometry),DIO-NASH mice; [6],lower PSR staining than those from mock-treated animals
same,proportion of animals with a reduction in fibrosis score post-treatment,DIO-NASH mice,higher proportion
Cc1cc(OCP2(=O)OCC[C@@H](c3cccc(Cl)c3)O2)cc(C)c1Cc1ccc(O)c(C(C)C)c1 (stereo partly shown) [Compound 2],animals with increases in fibrosis score post-treatment,DIO-NASH mice,No Compound 2-treated animals showed increases
same,liver Picro-Sirius Red (PSR) staining (total liver collagen 1 and 3 by morphometry),DIO-NASH mice; [6],lower PSR staining than control-treated or mock-treated animals
same,total liver hydroxyproline,"DIO-NASH mice; Compound 2 3 mg/kg (low) and 10 mg/kg (high), vs elafibranor 30 mg/kg (control) and vehicle (mock)",lower total liver hydroxyproline levels than control-treated or mock-treated animals
same,total liver ColA1 content (anti-type I collagen staining),"DIO-NASH mice; Compound 2 3 and 10 mg/kg, terminal liver biopsy, vs elafibranor (control) and vehicle (mock)",lower total liver ColA1 content than control-treated or mock-treated animals
same,proportion of animals with a reduction in fibrosis score post-treatment,DIO-NASH mice,higher proportion
same,NAS scores (NAFLD activity score),[1],significant improvements
same,toxicity,[1],No significant toxicity
same,reduction of total lipid content in the liver,"[1]; FIG. 6, vs vehicle-treated controls",approximately 80%
same,reduction of expression of pro-fibrotic gene Col3a1,[1]; [7],27.1%
same,reduction of expression of pro-fibrotic gene Colla1,[1]; [7],36.3%
same,reduction of expression of pro-fibrotic gene Galectin 1,[1]; [7],64.7%
same,reduction of expression of pro-fibrotic gene αSMA,[1]; [7],37%
same,reduction in fibrosis (fibrosis score),[1]; [8],50.2%
same,reduction in hydroxyproline,[1]; [8],46.3%
same,reduction in type 1 collagen deposition,[1]; [8],60.2%
same,liver cholesterol,[1]; relative to untreated controls,Significant reductions
same,liver triglycerides,[1]; relative to untreated controls,Significant reductions
same,lung Collagen III staining,[2],decreased
same,lung fibrosis score,[2],decreased
same,lung hydroxyproline levels,[2],reduced levels
same,palmar fascia Collagen III staining,nude mice,decreased
same,palmar fascia fibrosis score,nude mice,decreased
same,palmar fascia hydroxyproline levels,nude mice,reduced levels
same,injection site skin Collagen III staining,[3],decreased
same,injection site skin fibrosis score,[3],decreased
same,injection site skin hydroxyproline levels,[3],reduced levels
same,liver Collagen I staining,[4],decreased
same,liver fibrosis score,[4],decreased
same,liver hydroxyproline levels,[4],reduced levels
same,liver Collagen I staining,[5],decreased
same,liver fibrosis score,[5],decreased
same,liver hydroxyproline levels,[5],reduced levels
